Laboratory results as given in PubChem BioAssay (NCI).
Values joined by “and” are separate entries in the source; they are usually repeats but may differ in a detail not shown here. Identical values can stand only once.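 Results reflect a 48-hour exposure of cells in 96-well plates to compound at five concentrations. GI50 = concentration required for 50% inhibition of growth. The concentration for full growth arrest is given as TGI.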

System: MDA-MB-468 breast
Experiment: DTP human tumour cell line panel, 48 h

## Cc1nnc(Nc2ccc(NC(=O)Nc3ccc(Cl)cc3)cc2)c2ccccc12
  GI50: 2.84 µM
  TGI: 7.43 µM

## CCc1cc(OC(=O)N2CCC(N3CCCCC3)CC2)ccc1Nc1cc(-c2ccc(-n3cccn3)cc2)[nH]n1
  GI50: 1.74 µM
  TGI: 3.65 µM

## CC(NCCC(c1ccccc1)c1ccccc1)c1ccccc1 (stereo not given)
  GI50: 1.3 µM
  TGI: 2.64 µM

## COc1cc(Cl)cc(-c2nn(-c3cccc(NC(=O)c4ccc(N5CCOCC5)c(C(F)(F)F)c4)c3)cc2-c2ccncc2)c1
  GI50: 12.1 µM
  TGI: > 100 µM

## Cc1cc(N[C@@H]2CCC[C@H](Nc3ccnc4cc(Cl)ccc34)C2)nc(N2CCCCCC2)n1
  GI50: 1.4 µM
  TGI: 3.11 µM

## CC(=O)ON1CCCC(P(=O)(OCCSC(=O)C(C)(C)C)OCCSC(=O)C(C)(C)C)C1=O (stereo not given)
  GI50: 2.67 µM
  TGI: 23.6 µM

## O=C(Nc1cc(C(F)(F)F)cc(C(F)(F)F)c1)c1cc(Cl)ccc1O
  GI50: 0.195 µM and 0.238 µM
  TGI: 0.715 µM and 0.799 µM

## CCn1c(O)c(/C=N/NC(=O)C(C)c2ccc(CC(C)C)cc2)sc1=S (stereo not given)
  GI50: 0.378 µM
  TGI: 12 µM

## O=C(Nc1ccc(Br)cc1F)c1cc(Cl)ccc1O
  GI50: 0.871 µM
  TGI: 4.78 µM

## C[n+]1c(/C=C/c2c(O)ccc3ccccc23)ccc2ccccc21
  GI50: 1.46 µM
  TGI: 7.08 µM

## CC(C)(/C=C(\C#N)C(=O)N1CCC[C@@H](n2nc(-c3ccc(Oc4ccccc4)cc3F)c3c(N)ncnc32)C1)N1CCN(C2COC2)CC1
  GI50: 3.63 µM
  TGI: 14.9 µM

## CN(C)CC[C@H](CSc1ccccc1)Nc1ccc(S(=O)(=O)NC(=O)c2ccc(N3CCN(Cc4ccccc4-c4ccc(Cl)cc4)CC3)cc2)cc1[N+](=O)[O-]
  GI50: 1.38 µM
  TGI: 3.65 µM

## COc1cnc2c(c1)C(=O)c1c-2n(CCCN2CCOCC2)c(=O)c2cc(Cl)ccc12
  GI50: 0.183 µM
  TGI: 0.544 µM

## COc1cnc2c(c1)C(=O)c1c-2n(CCCNC2=NCCS2)c(=O)c2cc([N+](=O)[O-])ccc12
  GI50: 0.0283 µM
  TGI: 1.53 µM

## CNCCOC(=O)/C=C1\CC[C@H]2[C@@H]([C@@H](O)C(=O)[C@@H]3[C@]2(C)CC[C@H](O)[C@]3(C)C(=O)OC)[C@H]1C
  GI50: 1.44 µM
  TGI: 3.69 µM

## NC(N)=N/N=C/c1c(Cl)cccc1Cl
  GI50: 12.4 µM
  TGI: 26.5 µM

## Nc1ncn([C@@H]2O[C@H](CO)[C@@H](O)[C@H]2O)c(=O)n1
  GI50: 1.03 µM
  TGI: 5.34 µM

## COC(=O)c1c2c(c(C)[n+]([O-])c1C)C(=O)C=C(NCc1ccc(F)cc1)C2=O
  GI50: 0.284 µM
  TGI: 0.978 µM

## COC(=O)[C@]12CC[C@@H](C)[C@H](C)[C@@H]1C1=CC[C@@H]3[C@@]4(C)C[C@@H](O)[C@H](O)[C@@](C)(CO)C4=CC[C@@]3(C)[C@]1(C)CC2
  GI50: 14.2 µM
  TGI: 29.7 µM

## N=c1c2c(-c3ccccc3)c(-c3ccccc3)n(Cc3ccccc3)c2ncn1C1CCC(O)CC1 (stereo not given)
  GI50: 0.631 µM
  TGI: 3.23 µM

## O=C(NC[C@H](O)CN1CCc2ccccc2C1)c1cc(NC2COC2)ncn1
  GI50: 4.25 µM
  TGI: 24.5 µM

## O=C(Cc1ccc(F)c(Cl)c1)Nc1cc(C2(C(F)(F)F)CC2)nn1CC1CCCCC1
  GI50: 2.68 µM
  TGI: 9.28 µM

## COc1cc(N=Nc2ccc(O)c3ncccc23)c2ncccc2c1
  GI50: 2.27 µM
  TGI: 6.64 µM

## O=C(/C=C/c1ccc[nH]1)c1ccc(-n2ccc(C(F)(F)F)n2)cc1
  GI50: > 54.6 µM
  TGI: > 100 µM

## CN(C)CCCNc1c2ccc(Cl)cc2nc2c1oc1ccc(Cl)cc12
  GI50: 8.02 µM
  TGI: 21.8 µM

## O=[N+]([O-])c1ccc(-c2nnc(SCc3ccc(O)c4ncccc34)n2-c2ccccc2)cc1
  GI50: 0.577 µM
  TGI: 4.46 µM

## COc1ccc(-c2nnc3n(C)c(=O)c4ccccc4n23)cc1N
  GI50: 2.33 µM
  TGI: > 100 µM

## Cc1nc(Nc2cccnc2)sc1C(=O)/C=C/c1ccc(F)cc1
  GI50: 3.22 µM
  TGI: 11.1 µM

## CCOC(=O)Nc1cc2c(c(N)n1)N=C(c1ccccc1)CO2
  GI50: 0.0427 µM
  TGI: 0.394 µM

## CCN1CCN(c2cc(C)c3cc(NC(=O)c4ccc(OC)c(OC)c4)ccc3n2)CC1
  GI50: 17.7 µM
  TGI: > 100 µM

## O=c1oc2ccc(-c3ccc(F)cc3F)cc2c(=O)n1-c1cccc(C(F)(F)F)c1
  GI50: 2.28 µM and 1.13 µM
  TGI: 5.83 µM and 3.43 µM

## C[C@@H](Nc1c(C#N)cnc2ccc(-c3cnc(Cl)c(NS(C)(=O)=O)c3)cc12)c1ccccc1
  GI50: 0.0745 µM
  TGI: 1.23 µM

## Clc1cc2c(c(CSc3nc4ccccc4n4cccc34)c1)OCOC2
  GI50: 2.16 µM
  TGI: > 100 µM

## COc1ccc2nc3ccccc3c(NCc3ccc(F)cc3)c2c1
  GI50: 1.07 µM
  TGI: 2.93 µM

## C[C@@H]1C[C@@H]([C@@H](CC2CC(=O)NC(=O)C2)OC(=O)CC(=O)c2ccccc2)C(=O)[C@@H](C)C1
  GI50: 1.17 µM
  TGI: > 100 µM
